Experimental data published in patent US8470829B2 (priority 2004, dated 2013).
Read-outs that look alike come from different tables or passages of the source.

Key:
[1] = molecular target: androgen receptor (Homo sapiens, UniProt P10275); details: at a concentration of 10 μmol/L; cited from earlier work
[2] = molecular target: T1, human androgen receptor (Homo sapiens, UniProt P10275); experiment: Measurement of agonist effect on androgen receptor (reporter gene assay, 11A11B2 cells); type: cell-based; details: compound concentration showing a transcription activity of 5% (0.1 nmol/L DHT = 100%, assay medium alone = 0%), 48 hours
T1 construct: expressed in transfected cells
T1 sequence (P10275 1-920): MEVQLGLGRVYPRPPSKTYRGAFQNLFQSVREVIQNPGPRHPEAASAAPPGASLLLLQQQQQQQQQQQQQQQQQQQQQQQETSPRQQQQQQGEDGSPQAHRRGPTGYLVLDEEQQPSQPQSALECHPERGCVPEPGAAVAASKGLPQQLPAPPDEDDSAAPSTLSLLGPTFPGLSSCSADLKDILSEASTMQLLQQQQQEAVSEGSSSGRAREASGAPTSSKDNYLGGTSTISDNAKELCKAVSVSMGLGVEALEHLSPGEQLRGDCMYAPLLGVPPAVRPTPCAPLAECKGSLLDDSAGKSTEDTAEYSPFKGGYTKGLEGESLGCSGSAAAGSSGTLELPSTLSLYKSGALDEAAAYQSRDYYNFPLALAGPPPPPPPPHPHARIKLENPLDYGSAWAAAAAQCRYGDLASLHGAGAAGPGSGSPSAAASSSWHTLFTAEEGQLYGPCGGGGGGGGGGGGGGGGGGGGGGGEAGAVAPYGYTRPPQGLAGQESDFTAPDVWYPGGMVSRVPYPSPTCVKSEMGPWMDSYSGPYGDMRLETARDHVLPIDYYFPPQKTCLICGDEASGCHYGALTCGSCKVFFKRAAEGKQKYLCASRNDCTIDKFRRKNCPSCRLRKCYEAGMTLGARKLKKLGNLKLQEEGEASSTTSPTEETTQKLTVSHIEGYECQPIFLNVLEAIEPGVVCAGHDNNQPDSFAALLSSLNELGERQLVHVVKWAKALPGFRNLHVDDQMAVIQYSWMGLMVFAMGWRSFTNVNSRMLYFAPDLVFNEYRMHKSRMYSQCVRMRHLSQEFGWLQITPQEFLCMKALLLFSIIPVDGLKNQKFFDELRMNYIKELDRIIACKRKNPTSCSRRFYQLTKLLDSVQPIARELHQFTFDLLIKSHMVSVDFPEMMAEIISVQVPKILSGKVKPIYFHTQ

[3] = prostate cancer patients treated with flutamide; cited from earlier work
[4] = molecular target: T1, human androgen receptor; experiment: Investigation of antagonist effect on androgen receptor (reporter gene assay, 11A11B2 cells, with DHT); type: cell-based
[5] = tested on: castrated rats; details: continuously administered to castrated rats for two weeks; cited from earlier work
[6] = with 0.1 nmol/L DHT, transcription activity rate of Test Example 1 subtracted, 11A11B2 cells, 48 hours, read-out: IC50

SMILES	EC5 [2] [µM]	IC50 [4, 6] [µM]	IC50 [4] [µM]	other results
CC(C)(O)C(=O)Nc1ccc([N+](=O)[O-])c(C(F)(F)F)c1 [Comparative Example 4, hydroxyflutamide]	0.01	–	–	androgen receptor transcription activity [1]: increase; concentration in the blood [3]: several
CCOC(=O)Nc1cc(N2C(=O)N(c3ccc(C#N)c(C(F)(F)F)c3)C(=O)C2(C)C)ccc1Cl [Example 13, {2-chloro-5-[3-(4-cyano-3-trifluoromethylphenyl)-5,5-dimethyl-2,4-dioxoimidazolidin-1-yl]phenyl}carbamic acid ethyl ester]	>10	0.2	–	melting point: 155 to 157 °C
CC1(C)C(=O)N(c2ccc(C#N)c(Cl)c2)C(=S)N1c1ccc2sc(NC(=O)OCC(O)CO)nc2c1 (stereo not drawn) [Example 65, {5-[3-(3-chloro-4-cyanophenyl)-5,5-dimethyl-4-oxo-2-thioxoimidazolidin-1-yl]benzothiazol-2-yl}carbamic acid 2,3-dihydroxypropyl ester]	>10	0.2	–	–
CC1(C)C(=O)N(c2ccc(C#N)c(Cl)c2)C(=S)N1c1ccc2sc(NC(=O)OCCO)nc2c1 [Example 66, {5-[3-(3-chloro-4-cyanophenyl)-5,5-dimethyl-4-oxo-2-thioxoimidazolidin-1-yl]benzothiazol-2-yl}carbamic acid 2-hydroxyethyl ester]	6	–	0.1	–
CC1(C)C(=O)N(c2ccc(C#N)c(Cl)c2)C(=S)N1c1cccc(S(N)(=O)=O)c1 [Example 68, 3-[3-(3-chloro-4-cyanophenyl)-5,5-dimethyl-4-oxo-2-thioxoimidazolidin-1-yl]benzenesulfonamide]	>10	0.4	–	–
CN(C)CCOC(=O)Nc1ccc(N2C(=S)N(c3ccc(C#N)c(Cl)c3)C(=O)C2(C)C)cn1 [Example 69, {5-[3-(3-chloro-4-cyanophenyl)-5,5-dimethyl-4-oxo-2-thioxoimidazolidin-1-yl]pyridin-2-yl}-carbamic acid 2-dimethylaminoethyl ester]	>10	–	0.5	–
CC1(C)C(=O)N(c2ccc(C#N)c(C(F)(F)F)c2)C(=S)N1c1ccc(NC(=O)OCC(O)CO)nc1 (stereo not drawn) [Example 70, {5-[3-(4-cyano-3-trifluoromethylphenyl)-5,5-dimethyl-4-oxo-2-thioxoimidazolidin-1-yl]pyridin-2-yl}-carbamic acid 2,3-dihydroxypropyl ester]	>10	–	0.5	–
CC(=O)O[C@]1(C(C)=O)CC[C@H]2[C@@H]3C=C(Cl)C4=CC(=O)CC[C@]4(C)[C@H]3CC[C@@]21C [chlormadinone acetate]	–	–	–	weight of the prostate gland [5]: increase
CC(=O)O[C@]1(C(C)=O)CC[C@H]2[C@@H]3C=C(Cl)C4=CC(=O)[C@@H]5C[C@@H]5[C@]4(C)[C@H]3CC[C@@]21C [cyproterone acetate]	–	–	–	weight of the prostate gland [5]: increase
